Assay results taken from US20260049062A1, “SARS-COV-2 INHIBITORS FOR TREATING CORONAVIRUS INFECTIONS” (Insilico Medicine IP Limited, priority 2021, published 2026).

System: SARS-CoV-2
Assay: In vitro antiviral cell-based assay (live SARS-CoV-2), plaque reduction assay in VeroE6 cells
Conditions: Severe acute respiratory syndrome coronavirus 2, Vero, read-out: Vero EC50 (μM)

`CC(C(=O)NC1CCC(F)(F)CC1)(c1cncnc1)N(C(=O)[C@H](F)Cl)c1ccc(-c2cncs2)cc1` (single isomer, unassigned) [Example 1a] was tested, and the EC50 was 0.1 to 1 µM.
